Experimental data reported in patent US9393181B2, “Dental materials with improved hydrolysis stability based on phthalic acid monomers” (Ivoclar Vivadent AG, priority 2011, dated 2016).

What was measured:
[1] = in aqueous solutions; cited from earlier work
[2] = Solubility in solvents; assay type: physicochemical; conditions: e.g. in ethanol or acetone
Procedure: Furthermore compositions which contain water as solvent (f) are preferred. The solubility of the phthalic acid derivatives of the Formula (I) in polar solvents is good.
4-hydroxyphthalic anhydride (6.70 g; 40.8 mmol), BHT (10 mg) and N-(11-bromoundecyl)-N-methyl acrylamide (13.00 g; 40.8 mmol) were dissolved in N,N-dimethylformamide (100 ml). Potassium carbonate (5.64 g; 40.8 mmol) was added. The yellow suspension was stirred at RT. Water (200 ml) was added to the reaction mixture after 20 d and the whole stirred for 1 h at RT. An oily white solid precipitated from the initially cloudy solution. The solvent was decanted off. The residue was dissolved in dilute aqueous Na2CO3 solution (5%; 100 ml). The milky/cloudy aqueous phase was washed with MtBE (5×100 ml). Diluted hydrochloric acid (2N, 100 ml) was added to the water phase (pH=1) and extraction with MtBE (8×100 ml) took place. The combined extracts were dried over Na2SO4, filtered and concentrated on the rotary evaporator. Chloroform (150 ml) was added to the residue and the whole stirred at RT. After 20 h the suspension was filtered. The filtration residue was washed with chloroform (50 ml) and discarded. The filtrate was concentrated on the rotary evaporator. The residue was dissolved in chloroform (50 ml). Acetonitrile (50 ml) was added. After 72 h storage at −18° C. the solvent was decanted off and the residue dried under a fine vacuum.

[3] = Hydrolysis stability of AAUPA in acidic solution, followed by 1H-NMR; assay type: physicochemical; conditions: 5% AAUPA, 200 ppm BHT, 5% phosphoric acid d3, 10% D2O, 80% DMSO-d6; stored at 37° C., standing time 12 weeks
Procedure: A solution of 5% of the phthalic acid acrylamide AAUPA stabilized with 200 ppm 2,6-di-t-butyl-4-methylphenol, 5% phosphoric acid d3, 10% D2O and 80% DMSO-d6 was prepared, was stored at 37° C. and examined spectroscopically with ^1H-NMR. After a standing time of 12 weeks, no changes were able to be established in the ^1H-NMR spectrum.

Row | SMILES | hydrolysis to 4-MET [1] | solubility [2] | changes in the 1H-NMR spectrum (hydrolysis stability) [3]
1 | C=C(C)C(=O)OCCOC(=O)c1ccc2c(c1)C(=O)OC2=O [Example 4-META] | very quickly hydrolyzed | – | –
2 | C=CC(=O)N(C)CCCCCCCCCCCOc1ccc(C(=O)O)c(C(=O)O)c1 [AAUPA, 4-[11-(acryloyl-methyl-amino)-undecyloxy]phthalic acid] | – | dissolves very well | no changes
